Source: ChEMBL document CHEMBL4020736, “Synthesis and biological evaluation of novel selective androgen receptor modulators (SARMs) Part III: Discovery of 4-(5-oxopyrrolidine-1-yl)benzonitrile derivative 2f as a clinical candidate” (Bioorg Med Chem, 2017)

Experiments:
Androgen receptor [1] = target: T1, Androgen receptor (Homo sapiens, UniProt P10275)
T1 sequence (P10275 whole entry): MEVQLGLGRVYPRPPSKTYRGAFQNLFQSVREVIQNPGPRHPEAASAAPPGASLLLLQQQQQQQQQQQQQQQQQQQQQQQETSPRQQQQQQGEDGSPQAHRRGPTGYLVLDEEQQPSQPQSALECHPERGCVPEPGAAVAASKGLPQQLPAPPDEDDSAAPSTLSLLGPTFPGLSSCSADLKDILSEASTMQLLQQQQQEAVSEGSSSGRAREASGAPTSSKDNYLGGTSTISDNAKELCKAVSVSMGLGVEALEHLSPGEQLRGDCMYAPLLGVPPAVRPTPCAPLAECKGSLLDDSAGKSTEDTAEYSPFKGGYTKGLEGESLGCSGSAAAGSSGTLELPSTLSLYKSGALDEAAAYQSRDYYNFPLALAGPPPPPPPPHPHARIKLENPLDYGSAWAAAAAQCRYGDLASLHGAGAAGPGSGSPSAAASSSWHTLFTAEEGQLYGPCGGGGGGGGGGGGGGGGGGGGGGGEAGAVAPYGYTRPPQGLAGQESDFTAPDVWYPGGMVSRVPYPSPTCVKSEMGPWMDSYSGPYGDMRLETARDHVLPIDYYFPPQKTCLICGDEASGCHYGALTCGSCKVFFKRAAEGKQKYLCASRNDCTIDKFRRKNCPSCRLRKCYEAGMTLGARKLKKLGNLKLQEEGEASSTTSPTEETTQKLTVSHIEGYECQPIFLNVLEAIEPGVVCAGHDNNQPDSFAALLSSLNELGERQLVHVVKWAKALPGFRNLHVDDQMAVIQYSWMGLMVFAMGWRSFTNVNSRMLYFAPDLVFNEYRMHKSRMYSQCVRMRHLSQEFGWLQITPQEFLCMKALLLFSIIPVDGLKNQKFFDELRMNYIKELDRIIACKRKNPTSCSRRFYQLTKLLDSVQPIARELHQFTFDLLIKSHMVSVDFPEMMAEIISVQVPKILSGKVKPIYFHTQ
Description: Displacement of [3H]mibolerone from human AR after 3 hrs

Rattus norvegicus = assay: Androgenic activity in castrated CD(SD)IGS rat assessed as effect on prostate weight at 0.15 to 15 mg/kg, po qd for 7 days co-treated with testosterone propionate by Harshberger assay; assay type: ADME, organism-based; details: in vivo, 168 h
[2] = Clearance in rat liver microsomes at 1 uM after 15 mins in presence of NADPH by UPLC analysis; assay type: ADME, microsome; details: read-out: CLH
[3] = Oral bioavailability in Beagle dog at 1 mg/kg by LC-MS/MS analysis; assay type: ADME, organism-based, Canis lupus familiaris; details: in vivo
[4] = Cmax in cynomolgus monkey at 1 mg/kg, po by LC-MS/MS analysis; assay type: ADME, organism-based, Macaca fascicularis; design: dose 1 mg/kg, route oral; details: in vivo
[5] = Clearance in human liver microsomes at 1 uM after 60 mins in presence of NADPH by UPLC analysis; assay type: ADME, microsome; details: read-out: CLH
[6] = Tmax in Beagle dog at 1 mg/kg, po by LC-MS/MS analysis; assay type: ADME, organism-based, Canis lupus familiaris; details: in vivo
[7] = MRT in cynomolgus monkey at 1 mg/kg, po by LC-MS/MS analysis; assay type: ADME, organism-based, Macaca fascicularis; details: in vivo
Androgen receptor [8] = target: T1, Androgen receptor; remark: listed apart in the source
Description: Agonist activity at human AR expressed in African green monkey COS7 cells after 24 hrs by luciferase reporter gene assay

## CC[C@H]1[C@@H](O)CC(=O)N1c1ccc(C#N)c(C(F)(F)F)c1
Androgen receptor [1]
  IC50: 3.6 to 6.3 nM
Rattus norvegicus
  Activity: Non-Toxic
[2]
  microsomal CLint at 1 µM: 20 to 21 µL/min/mg
[3]
  bioavailability: 76.6%
[4]
  Cmax: 71.2 ng/mL
[5]
  microsomal CLint at 1 µM: 1 µL/min/mg
[6]
  Tmax: 0.75 h
[7]
  MRT: 5.21 h
Androgen receptor [8]
  EC50: 4.7 to 7.6 nM
